Reference: the NIST ThermoML archive (doi:10.1021/je900570e)
“And” between values parts separate entries of the source, which are not always exact repeats. Equal values may be shown once. ± gives the expanded uncertainty stated by the source.

What was measured:
[1] = Liquid; for mass density: 101.33 kPa, Vibrating tube method; for viscosity / speed of sound: 101 kPa; for viscosity: Capillary tube (Ostwald / Ubbelohde) method; for speed of sound: Frequency=2 MHz, Pulse-echo method
[2] = xn = mol fraction of the nth substance listed; conditions: Liquid; for viscosity / speed of sound: 101 kPa; for viscosity: Capillary tube (Ostwald / Ubbelohde) method; for speed of sound: Frequency=2 MHz, Pulse-echo method; for mass density: 101.33 kPa, Vibrating tube method

SMILES | mass density ([1]; 298.15 K) [kg/m3] | viscosity ([1]; 303.15 K) [mPa·s] | speed of sound ([1]; 303.15 K) [m/s] | mass density ([1]; 303.15 K) | viscosity ([1]; 308.15 K) [mPa·s] | speed of sound ([1]; 308.15 K) [m/s] | mass density ([1]; 308.15 K) [kg/m3] | viscosity ([1]; 313.15 K) [mPa·s] | speed of sound ([1]; 313.15 K) [m/s] | mass density ([1]; 313.15 K) [kg/m3] | viscosity ([2]; 303.15 K, x2 = 0) [mPa·s] | speed of sound ([2]; 303.15 K, x2 = 0) [m/s] | mass density ([2]; 303.15 K, x2 = 0) [kg/m3] | viscosity ([2]; 308.15 K, x2 = 0) [mPa·s] | speed of sound ([2]; 308.15 K, x2 = 0) [m/s] | mass density ([2]; 308.15 K, x2 = 0) [kg/m3] | viscosity ([2]; 313.15 K, x2 = 0) [mPa·s] | speed of sound ([2]; 313.15 K, x2 = 0) [m/s] | mass density ([2]; 313.15 K, x2 = 0) [kg/m3] | viscosity ([1]; 298.15 K) [mPa·s] | other results
ClC(Cl)C(Cl)Cl [1,1,2,2-tetrachloroethane] | 1586.8 ± 1.4 | 1.456 ± 0.017 | 1134.7 ± 7 | 1579.6 ± 1.4 kg/m3 | 1.354 ± 0.017 | 1115.5 ± 6.9 | 1570.6 ± 1.4 | 1.261 ± 0.016 | 1095.5 ± 6.8 | 1563.7 ± 1.4 | – | – | – | – | – | – | – | – | – | – | –
ClC(Cl)C(Cl)Cl [1,1,2,2-tetrachloroethane] + N#CCc1ccccc1 | – | – | – | – | – | – | – | – | – | – | 1.456 ± 0.017 | 1134.7 ± 7 | 1579.6 ± 1.4 | 1.354 ± 0.017 | 1115.5 ± 6.9 | 1570.6 ± 1.4 | 1.261 ± 0.016 | 1095.5 ± 6.8 | 1563.7 ± 1.4 | – | –
ClCC(Cl)Cl [1,1,2-trichloroethane] | – | 1.019 ± 0.016 | 1129.2 ± 7.1 | 1425 ± 1.8 kg/m3 | 0.9483 ± 0.015 | 1115.9 ± 7 | 1416.1 ± 1.8 | 0.8888 ± 0.015 | 1096.1 ± 6.9 | 1409.6 ± 1.8 | – | – | – | – | – | – | – | – | – | 1.105 ± 0.016 | –
ClCCCl [1,2-dichloroethane] | 1246.7 ± 0.4 | 0.7237 ± 0.012 | 1174 ± 7.2 | 1238.7 ± 0.4 kg/m3 | 0.6737 ± 0.011 | 1164.8 ± 7.1 | 1230.5 ± 0.4 | 0.6419 ± 0.011 | 1153.5 ± 7 | 1223.7 ± 0.4 | – | – | – | – | – | – | – | – | – | 0.776 ± 0.012 | –
ClCCCl [1,2-dichloroethane] + N#CCc1ccccc1 | – | – | – | – | – | – | – | – | – | – | 0.7237 ± 0.012 | 1174 ± 7.1 | 1238.7 ± 0.4 | 0.6737 ± 0.011 | 1164.8 ± 7.1 | 1230.5 ± 0.4 | 0.6419 ± 0.011 | 1153.5 ± 7 | 1223.7 ± 0.4 | – | –
N#CCc1ccccc1 [benzeneacetonitrile] | – | 1.761 ± 0.023 | 1519.2 ± 9.4 | 1008.83 ± 0.86 kg/m3 and 1008.8 ± 0.9 kg/m3 | 1.602 ± 0.021 | 1512.9 ± 9.3 | 1004.1 ± 0.8 | 1.489 ± 0.02 | 1503.4 ± 9.3 | 999.5 ± 0.8 | – | – | – | – | – | – | – | – | – | – | –
N#CCc1ccccc1 [benzeneacetonitrile] + ClCC(Cl)Cl | – | – | – | – | – | – | – | – | – | – | – | – | – | – | – | – | – | – | – | – | viscosity ([2]; 303.15 K, x1 = 1): 1.761 ± 0.023 mPa·s; speed of sound ([2]; 303.15 K, x1 = 1): 1519.2 ± 9.4 m/s; mass density ([2]; 303.15 K, x1 = 1): 1008.8 ± 0.9 kg/m3; viscosity ([2]; 308.15 K, x1 = 1): 1.602 ± 0.021 mPa·s; speed of sound ([2]; 308.15 K, x1 = 1): 1512.9 ± 9.3 m/s; mass density ([2]; 308.15 K, x1 = 1): 1004.1 ± 0.8 kg/m3; viscosity ([2]; 313.15 K, x1 = 1): 1.489 ± 0.02 mPa·s; speed of sound ([2]; 313.15 K, x1 = 1): 1503.4 ± 9.3 m/s; mass density ([2]; 313.15 K, x1 = 1): 999.5 ± 0.8 kg/m3
ClC(Cl)=C(Cl)Cl [tetrachloroethene] | 1614.8 ± 0.8 | 0.7971 ± 0.012 | 1028 ± 6.3 | 1607.2 ± 0.8 kg/m3 | 0.7657 ± 0.012 | 1014 ± 6.2 | 1597.9 ± 0.8 | 0.7395 ± 0.012 | 996.6 ± 6.1 | 1590.6 ± 0.8 | – | – | – | – | – | – | – | – | – | 0.847 ± 0.012 | –
ClC(Cl)=C(Cl)Cl [tetrachloroethene] + N#CCc1ccccc1 | – | – | – | – | – | – | – | – | – | – | 0.7971 ± 0.012 | 1028 ± 6.3 | 1607.2 ± 0.8 | 0.7657 ± 0.012 | 1014 ± 6.2 | 1597.9 ± 0.8 | 0.7395 ± 0.012 | 996.6 ± 6.1 | 1590.6 ± 0.8 | – | –
ClC=C(Cl)Cl [trichloroethene] | 1455.9 ± 0.6 | 0.5172 ± 0.011 | 1014.7 ± 6.2 | 1447.5 ± 0.6 kg/m3 | 0.4992 ± 0.011 | 993.7 ± 6.1 | 1437.8 ± 0.6 | 0.4833 ± 0.011 | 982 ± 6 | 1430.4 ± 0.6 | – | – | – | – | – | – | – | – | – | 0.527 ± 0.011 | –
ClC=C(Cl)Cl [trichloroethene] + N#CCc1ccccc1 | – | – | – | – | – | – | – | – | – | – | 0.5172 ± 0.011 | 1014.7 ± 6.2 | 1447.5 ± 0.6 | 0.4992 ± 0.011 | 993.7 ± 6.1 | 1437.8 ± 0.6 | 0.4833 ± 0.011 | 982 ± 6 | 1430.4 ± 0.6 | – | –
